In patent US10870630B2, “Substituted bicyclic heteroaryl allosteric modulators of nicotinic acetylcholine receptors” (Merck Sharp & Dohme Corp., priority 2016, dated 2020):
Where two headings read alike, the source gives them in different places.

Molecular target: human α7 nicotinic acetylcholine receptor (α7 nAChR) (Homo sapiens, UniProt P36544)
Assay: Automated patch-clamp electrophysiology functional assay (Assay A)
Assay type: cell-based
Conditions: HEK cell line stably expressing human RIC-3 and human α7, IonFlux HT whole-cell population patch, 40 μM acetylcholine
Method: The α7 nAChR positive allosteric modulator (PAM) activity of the present compounds may be tested using assays known in the art. The α7 nAChR PAMs described herein have activities in an automated patch-clamp electrophysiology functional assay as described in the examples. The assay was performed using the IonFlux HT in a whole-cell, population patch configuration. See Golden et al. Assay Drug Dev. Technol. (2011) 9:608-619. The compounds were assessed for their ability to modulate the function of the human […] nAChR stably expressed in a HEK cell line both in the presence, and in the absence of the natural 07 agonist acetylcholine. By performing a series of such measurements at different concentrations, the effective concentration of the α7 nAChR PAMs (EC50) was determined. See Spencer et al. Assay Drug Dev. Technol. (2012) 10:313-324.
Automated patch-clamp electrophysiology was performed using the IonFlux HT (Fluxion Biosciences Inc., San Francisco, Calif.) in the whole-cell, population patch configuration. Test compounds were assessed for their ability to modulate the function of the α7 nicotinic acetylcholine receptor both in the presence, and in the absence of the natural α7 agonist acetylcholine. A HEK cell line stably expressing both human RIC-3 and human α7 (PrecisION hnAChR α7/RIC-3, Eurofins Pharma, St. Charles, Mo.) was cultured in 175 cm^2 triple-layer tissue culture flasks to no more than 90% confluency in DMEM/F-12 growth media supplemented with 10% heat-inactivated fetal bovine serum, 1% non-essential amino acids, 0.625 μg/mL Puromycin, and 400 μg/mL Geneticin. Immediately prior to assay, cells were detached by first aspirating growth media, rinsing with Dulbecco's phosphate buffered saline, and then adding 10 mL of Accutase (Innovative Cell Technologies, San Diego, Calif.) to the flask and then incubating at 37° C. for 5 minutes. Detached cells were then recovered by the addition of 40 mL of CHO-serum-free media supplemented with 25 mM HEPES, and rocked gently in a 50 mL conical tube for 20 minutes prior to patch-clamp assay. After recovery, cells were pelleted by centrifugation at 1,000 RPM for 1 minute in a compact bench top centrifuge; recovery media was aspirated and cells were resuspended in external recording solution (150 mM NaCl, 5 mM KCl, 2 mM CaCl2, 1 mM MgCl2, 10 mM HEPES, 12 mM dextrose) to a density of 5.0×10^6 cells/mL. The cell suspension was added to the cell inlet wells on an IonFlux HT population patch plate which had previously been rinsed and primed with deionized H2O. Test compounds were serially diluted in DMSO and then resuspended to the final test concentration in external recording solution, with, or without 40 μM acetylcholine added to the external recording solution; test compounds were then transferred to the IonFlux HT population patch plate. Internal recording solution (110 mM TrisPO4, 28 mM TrisBase, 0.1 mM CaCl2, 2 mM MgCl2, 11 mM EGTA, 4 mM MgATP) was added to the internal recording solution inlet wells on the IonFlux HT patch plate previously loaded with cells and test compounds, and the plate loaded into the IonFlux HT instrument. A protocol was executed on the IonFlux HT to trap the cells, break into the cells, and establish the whole-cell recording configuration; cells were voltage-clamped at a holding potential of −60 mV for the duration of the experiment, all experiments were conducted at room temperature, and the IonFlux HT injection pressure was 8 psi for solution applications. Upon establishing the whole-cell configuration, external recording solution was perfused into the recording chambers for 120 seconds and then 40 μM acetylcholine was applied for 1 second and immediately washed off with external recording solution for 60 seconds. The 40 μM acetylcholine-evoked α7 current served as the current response to which subsequent test compound effects, in the presence, or in the absence of 40 μM acetylcholine would be quantified relative to. […]

Chain of human α7 nicotinic acetylcholine receptor (α7 nAChR) (P36544 23-502): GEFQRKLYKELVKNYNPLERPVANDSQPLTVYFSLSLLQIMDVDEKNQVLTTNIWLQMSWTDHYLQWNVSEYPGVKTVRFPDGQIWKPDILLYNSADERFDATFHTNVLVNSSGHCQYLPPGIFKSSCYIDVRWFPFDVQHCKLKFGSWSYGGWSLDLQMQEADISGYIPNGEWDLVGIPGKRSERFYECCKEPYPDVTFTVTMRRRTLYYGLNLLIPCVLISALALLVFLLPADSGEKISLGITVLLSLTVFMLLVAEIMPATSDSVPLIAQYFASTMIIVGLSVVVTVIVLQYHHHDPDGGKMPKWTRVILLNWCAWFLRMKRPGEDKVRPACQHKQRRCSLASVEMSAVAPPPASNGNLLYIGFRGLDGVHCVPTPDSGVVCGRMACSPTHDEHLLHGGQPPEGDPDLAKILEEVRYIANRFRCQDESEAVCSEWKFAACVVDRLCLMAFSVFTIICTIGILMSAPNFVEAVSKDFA

EC50 (read-out: α7 nAChR EC50) [nM] | EC50 (read-out: α7 nAChR Potency) [nM] | Structure (SMILES)
410 | 100 to 500 | Cc1nc2c(C3CC3c3ccc(S(N)(=O)=O)cc3)cccc2s1 (racemic) [Example E1, 4-[2-(2-Methyl-1,3-benzothiazol-4-yl)cyclopropyl]benzenesulfonamide]
– | 500 to 5000 | NS(=O)(=O)c1ccc(C2CC2c2cnc3cc(Cl)cnc3c2)cc1 (racemic) [Example E2, 4-[2-(7-Chloro-1,5-naphthyridin-3-yl)cyclopropyl]benzenesulfonamide]
3500 | 500 to 5000 | NS(=O)(=O)c1ccc(C2CC2c2cnn3ccccc23)cc1 (racemic) [Example E3, 4-(2-Pyrazolo[1,5-a]pyridin-3-ylcyclopropyl)benzenesulfonamide]
– | 500 to 5000 | NS(=O)(=O)c1ccc(C2CC2c2ccc3nccnc3c2)cc1 (racemic) [Example E4, 4-(2-Quinoxalin-6-ylcyclopropyl)benzenesulfonamide]
– | 500 to 5000 | NS(=O)(=O)c1ccc(C2CC2c2ccc3cc(C(F)(F)F)nnc3c2)cc1 (racemic) [Example E5, 4-[2-[3-(Trifluoromethyl)cinnolin-7-yl]cyclopropyl]benzenesulfonamide]
1200 | 500 to 5000 | NS(=O)(=O)c1ccc(C2CC2c2ccc3cc(Cl)ncc3c2)cc1 (racemic) [Example E6, 4-[2-(3-Chloro-7-isoquinolyl)cyclopropyl]benzenesulfonamide]
– | 500 to 5000 | NS(=O)(=O)c1ccc(C2CC2c2cc3ccncc3s2)cc1 (racemic) [Example E7, 4-(2-Thieno[2,3-c]pyridin-2-ylcyclopropyl)benzenesulfonamide]
– | 500 to 5000 | NS(=O)(=O)c1ccc(C2CC2c2ccc3ccncc3n2)cc1 (racemic) [Example E8, 4-[2-(1,7-Naphthyridin-2-yl)cyclopropyl]benzenesulfonamide]
2800 | 500 to 5000 | Cn1ncc2cc(C3CC3c3ccc(S(N)(=O)=O)cc3)ccc21 (racemic) [Example E9, 4-[2-(1-Methylindazol-5-yl)cyclopropyl]benzenesulfonamide]
– | 5000 to 50000 | NS(=O)(=O)c1ccc(C2CC2c2cc3n(n2)CCCC3)cc1 (racemic) [Example E10, 4-[2-(4,5,6,7-Tetrahydropyrazolo[1,5-a]pyridin-2-yl)cyclopropyl]benzenesulfonamide]
– | 500 to 5000 | NS(=O)(=O)c1ccc(C2CC2c2cnc3occc3c2)cc1 (racemic) [Example E11, 4-(2-Furo[2,3-b]pyridin-5-ylcyclopropyl)benzenesulfonamide]
5000 | 500 to 5000 | Cn1cc2ccc(C3CC3c3ccc(S(N)(=O)=O)cc3)cc2n1 (racemic) [Example E12, 4-[2-(2-Methylindazol-6-yl)cyclopropyl]benzenesulfonamide]
880 | 500 to 5000 | CN1CCOc2cc(C3CC3c3ccc(S(N)(=O)=O)cc3)cnc21 (racemic) [Example E13, 4-[2-(4-Methyl-2,3-dihydropyrido[3,2-b][1,4]oxazin-7-yl)cyclopropyl]benzenesulfonamide]
1300 | 500 to 5000 | NS(=O)(=O)c1ccc([C@@H]2C[C@H]2c2cnc3ccccc3n2)cc1 (relative stereo) [Example 7, 4-[trans-2-(Quinoxalin-2-yl)cyclopropyl]benzenesulfonamide]
620 | 500 to 5000 | CC1(C)[C@H](c2ccc(S(N)(=O)=O)cc2)[C@H]1c1nc2ccccc2o1 [Example 1, 4-[(1R,3R)-3-(1,3-Benzoxazol-2-yl)-2,2-dimethylcyclopropyl]benzenesulfonamide]
71 | ≤ 100 | CC1(C)[C@@H](c2ccc(S(N)(=O)=O)cc2)[C@@H]1c1nc2ccc(F)cc2o1 [Example 2, 4-[(1S,3S)-3-(6-Fluoro-1,3-benzoxazol-2-yl)-2,2-dimethylcyclopropyl]benzenesulfonamide]
370 | 100 to 500 | NS(=O)(=O)c1ccc([C@@H]2C[C@H]2c2ncc3ccccc3n2)cc1 [Example 3, 4-[(1R,2R)-2-(Quinazolin-2-yl)cyclopropyl]benzenesulfonamide]
610 | 500 to 5000 | NS(=O)(=O)c1ccc([C@@H]2C[C@H]2c2nc3c(o2)CCCC3)cc1 [Example 4, 4-[(1R,2R)-2-(4,5,6,7-Tetrahydro-1,3-benzoxazol-2-yl)cyclopropyl]benzenesulfonamide]
160 | 100 to 500 | NS(=O)(=O)c1ccc([C@@H]2C[C@H]2c2nc3ccccc3o2)cc1 [Example 5, 4-[(1R,2R)-2-(1,3-Benzoxazol-2-yl)cyclopropyl]benzenesulfonamide]
3400 | 500 to 5000 | CC1(C)[C@H](c2ccc(S(N)(=O)=O)cc2)[C@H]1c1nc2cccnc2o1 [Example 6, 4-[(1R,3R)-2,2-Dimethyl-3-([1,3]oxazolo[5,4-b]pyridin-2-yl)cyclopropyl]benzenesulfonamide]
3800 | 500 to 5000 | CC1(C)[C@H](c2ccc(S(N)(=O)=O)cc2)[C@H]1c1cn2ncccc2n1 [Example 8, 4-((1R,3R)-3-(Imidazo[1,2-b]pyridazin-2-yl)-2,2-dimethylcyclopropyl)benzenesulfonamide]
350 | 100 to 500 | CC1(C)[C@@H](c2ccc(S(N)(=O)=O)cc2)[C@@H]1c1nc2ccccc2s1 [Example 9]
450 | 100 to 500 | CC1(C)[C@@H](c2ccc(S(N)(=O)=O)cc2)[C@@H]1c1nc2ccc(F)cc2s1 [Example 10, 4-((1S,3S)-3-(6-Fluorobenzo[d]thiazol-2-yl)-2,2-dimethylcyclopropyl)benzenesulfonamide]
2000 | 500 to 5000 | CC1(C)[C@H](c2ccc(S(N)(=O)=O)cc2)[C@H]1c1nc2c(o1)CCC2 [Example 11, 4-[(1R,3R)-3-(5,6-Dihydro-4H-cyclopenta[d][1,3]oxazol-2-yl)-2,2-dimethylcyclopropyl]benzenesulfonamide]
2500 | 500 to 5000 | CC1(C)[C@H](c2ccc(S(N)(=O)=O)cc2)[C@H]1c1ncc2c(n1)CCCC2 [Example 12, 4-[(R,3R)-2,2-Dimethyl-3-(5,6,7,8-tetrahydroquinazolin-2-yl)cyclopropyl]benzenesulfonamide]
1800 | 500 to 5000 | CC1(C)OC([C@H]2[C@H](c3ccc(S(N)(=O)=O)cc3)C2(F)F)=Nc2ccccc21 [Example 13, 4-[(1R,3R)-3-(4,4-Dimethyl-4H-3,1-benzoxazin-2-yl)-2,2-difluorocyclopropyl]benzenesulfonamide]
830 | 500 to 5000 | COc1cccc2oc([C@H]3[C@H](c4ccc(S(N)(=O)=O)cc4)C3(C)C)nc12 [Example A1, 4-[(1S,3S)-3-(4-Methoxy-1,3-benzoxazol-2-yl)-2,2-dimethyl-cyclopropyl]benzenesulfonamide]
60 | ≤ 100 | NS(=O)(=O)c1ccc([C@@H]2C[C@H]2c2nc3ccc(F)cc3o2)cc1 [Example A2, 4-[(1R,2R)-2-(6-Fluoro-1,3-benzoxazol-2-yl)cyclopropyl]benzenesulfonamide]
960 | 500 to 5000 | CC1(C)[C@@H](c2ccc(S(N)(=O)=O)cc2)[C@@H]1c1nc2c(F)cc(F)cc2s1 [Example A3, 4-[(1S,3S)-3-(4,6-Difluoro-1,3-benzothiazol-2-yl)-2,2-dimethyl-cyclopropyl]benzenesulfonamide]
